According to patent publication US20040231558A1, “Water-color ink” (priority 2001, published 2004):

Legend:
Assay type in all cases: physicochemical
[1] = Evaluation of light fastness-1 (OD value of printed portion after 100 hours xenon fadeometer); conditions: ink prepared as in Example 1 from the salt named in the row; OD value of printed portion after 100 hours xenon fadeometer
Description: (§1) The prepared ink was filled in an ink cartridge for a piezo-type ink-jet printer EM-930C (manufactured by Seiko Epson). The printing was performed with this printer, and the light fastness was evaluated. Further, the storage stability of the ink was evaluated.
(A)-1 Evaluation of Light Fastness-1
Printing density (OD value) was measured after irradiating a printed portion with light for 100 hours using a xenon fadeometer (manufactured by Suga Shikenki) to evaluate the light fastness.

[2] = Evaluation of light fastness-2 (OD value of printed portion after 400 hours xenon fadeometer); conditions: ink prepared as in Example 1 from the salt named in the row; OD value of printed portion after 400 hours xenon fadeometer
Description: as §1
(A)-2 Evaluation of Light Fastness-2
Printing density (OD value) was measured after irradiating a printed-portion with light for 400 hours using axenon fadeometer (manufactured by Suga Shikenki), and the light fastness was evaluated.

[3] = Evaluation of moisture resistance (image-recorded paper at 40° C. and humidity 85%, visual observation); conditions: image-recorded paper at 40° C. and humidity 85%, visually observed
[4] = Evaluation of storage stability of ink (40° C. for 3 months, insoluble matter and clogging); conditions: recording liquid stored at 40° C. for 3 months; insoluble matter and clogging
Description: as §1
(C) Evaluation of Storage Stability of Ink:
After a recording liquid was stored at 40° C. for 3 months, it was observedwhether or not an insoluble matterwas precipitated, and whether or not clogging occurred after continuous recording with the foregoing printer for a long period of time.

SMILES	(A)-1 light fastness-1 [1]	(A)-2 light fastness-2 [2]	(B) moisture resistance [3]	(C) storage stability [4]
Cc1c(N=Nc2cc(C(=O)O)ccc2C(=O)O)c(O)n(CCCCCCNC(=O)c2cc(C(=O)O)c(C(=O)NCCCCCCn3c(O)c(N=Nc4cc(C(=O)O)ccc4C(=O)O)c(C)c(C#N)c3=O)cc2C(=O)O)c(=O)c1C#N [Compound 281]	⊚	◯	⊚	◯
CCc1c(N=Nc2cc(C(=O)O)ccc2C(=O)O)c(O)n(CCNC(=O)c2cc(C(=O)O)c(C(=O)NCCn3c(O)c(N=Nc4cc(C(=O)O)ccc4C(=O)O)c(CC)c(C#N)c3=O)cc2C(=O)O)c(=O)c1C#N [Compound 283]	⊚	⊚⊚	⊚	◯
CCCCc1c(N=Nc2cc(C(=O)O)ccc2C(=O)O)c(O)n(CCNC(=O)c2cc(C(=O)O)c(C(=O)NCCn3c(O)c(N=Nc4cc(C(=O)O)ccc4C(=O)O)c(CCCC)c(C#N)c3=O)cc2C(=O)O)c(=O)c1C#N [Compound 284]	⊚	⊚⊚	⊚	◯
N#Cc1c(-c2ccccc2)c(N=Nc2cc(C(=O)O)ccc2C(=O)O)c(O)n(CCNC(=O)c2cc(C(=O)O)c(C(=O)NCCn3c(O)c(N=Nc4cc(C(=O)O)ccc4C(=O)O)c(-c4ccccc4)c(C#N)c3=O)cc2C(=O)O)c1=O [Compound 285]	⊚	⊚⊚	⊚	◯
N#Cc1c(-c2ccccc2)c(N=Nc2cc(C(=O)O)ccc2C(=O)O)c(O)n(CCCCCCNC(=O)c2cc(C(=O)O)c(C(=O)NCCCCCCn3c(O)c(N=Nc4cc(C(=O)O)ccc4C(=O)O)c(-c4ccccc4)c(C#N)c3=O)cc2C(=O)O)c1=O [Compound 287]	⊚	⊚	⊚	◯
N#Cc1c(C(F)(F)F)c(N=Nc2cc(C(=O)O)ccc2C(=O)O)c(O)n(CCNC(=O)c2cc(C(=O)O)c(C(=O)NCCn3c(O)c(N=Nc4cc(C(=O)O)ccc4C(=O)O)c(C(F)(F)F)c(C#N)c3=O)cc2C(=O)O)c1=O [Compound 291]	⊚	⊚⊚	⊚	◯
Cc1c(N=Nc2cccc(C(=O)O)c2C(=O)O)c(O)n(CCNC(=O)c2cc(C(=O)O)c(C(=O)NCCn3c(O)c(N=Nc4cccc(C(=O)O)c4C(=O)O)c(C)c(C#N)c3=O)cc2C(=O)O)c(=O)c1C#N [Compound 293]	⊚	⊚⊚	⊚	◯
Cc1c(N=Nc2cc(C(=O)O)ccc2C(=O)O)c(O)n(CCNc2nc(O)nc(NCCn3c(O)c(N=Nc4cc(C(=O)O)ccc4C(=O)O)c(C)c(C#N)c3=O)n2)c(=O)c1C#N [Compound 294]	⊚	◯	⊚	Δ
Cc1c(N=Nc2cc(C(=O)O)ccc2C(=O)O)c(O)n(CCNC(=O)c2cc(C(=O)NCCn3c(O)c(N=Nc4cc(C(=O)O)ccc4C(=O)O)c(C)c(C#N)c3=O)c(C(=O)O)cc2C(=O)O)c(=O)c1C#N [Compound 296]	⊚	⊚	⊚	◯
CCc1c(N=Nc2cc(C(=O)O)ccc2C(=O)O)c(O)n(CCNC(=O)c2cc(C(=O)NCCn3c(O)c(N=Nc4cc(C(=O)O)ccc4C(=O)O)c(CC)c(C#N)c3=O)c(C(=O)O)cc2C(=O)O)c(=O)c1C#N [Compound 297]	⊚	⊚	⊚	◯
Cc1c(N=Nc2cc(C(=O)O)ccc2C(=O)O)c(O)n(CCNc2nc(Cl)nc(NCCn3c(O)c(N=Nc4cc(C(=O)O)ccc4C(=O)O)c(C)c(C#N)c3=O)n2)c(=O)c1C#N [Compound No. 245]	⊚	◯	⊚	◯
Cc1c(N=Nc2cc(C(=O)O)ccc2C(=O)O)c(O)n(CCCCCCNc2nc(Cl)nc(NCCCCCCn3c(O)c(N=Nc4cc(C(=O)O)ccc4C(=O)O)c(C)c(C#N)c3=O)n2)c(=O)c1C#N [Compound No. 246]	⊚	Δ	⊚	Δ

The remaining lines, values ahead:

(A)-1 light fastness-1 [1]	(A)-2 light fastness-2 [2]	(B) moisture resistance [3]	(C) storage stability [4]	SMILES
⊚	◯	⊚	◯	Cc1c(N=Nc2cc(C(=O)O)ccc2C(=O)O)c(O)n(CCCCCCNC(=O)c2cc(C(=O)NCCCCCCn3c(O)c(N=Nc4cc(C(=O)O)ccc4C(=O)O)c(C)c(C#N)c3=O)c(C(=O)O)cc2C(=O)O)c(=O)c1C#N [Compound 299]
⊚	⊚	⊚	Δ	Cc1c(N=Nc2cc(C(=O)O)ccc2C(=O)O)c(O)n(CCNC(=O)c2ccc(C(=O)NCCn3c(O)c(N=Nc4cc(C(=O)O)ccc4C(=O)O)c(C)c(C#N)c3=O)c(C(=O)NCCn3c(O)c(N=Nc4cc(C(=O)O)ccc4C(=O)O)c(C)c(C#N)c3=O)c2)c(=O)c1C#N [Compound 305]
⊚	⊚	⊚	Δ	CCc1c(N=Nc2cc(C(=O)O)ccc2C(=O)O)c(O)n(CCNC(=O)c2ccc(C(=O)NCCn3c(O)c(N=Nc4cc(C(=O)O)ccc4C(=O)O)c(CC)c(C#N)c3=O)c(C(=O)NCCn3c(O)c(N=Nc4cc(C(=O)O)ccc4C(=O)O)c(CC)c(C#N)c3=O)c2)c(=O)c1C#N [Compound 308]
⊚	⊚	⊚	Δ	Cc1c(N=Nc2cc(C(=O)O)ccc2C(=O)O)c(O)n(CCCCCCNC(=O)c2cc(C(=O)NCCCCCCn3c(O)c(N=Nc4cc(C(=O)O)ccc4C(=O)O)c(C)c(C#N)c3=O)c(C(=O)NCCn3c(O)c(N=Nc4cc(C(=O)O)ccc4C(=O)O)c(C)c(C#N)c3=O)cc2C(=O)NCCCCCCn2c(O)c(N=Nc3cc(C(=O)O)ccc3C(=O)O)c(C)c(C#N)c2=O)c(=O)c1C#N [Compound 312]
⊚	◯	⊚	Δ	Cc1c(N=Nc2cc(C(=O)O)ccc2C(=O)O)c(O)n(CCNc2nc(NCCn3c(O)c(N=Nc4cc(C(=O)O)ccc4C(=O)O)c(C)c(C#N)c3=O)nc(SCCC(=O)O)n2)c(=O)c1C#N [Compound 321]
⊚	⊚	⊚	Δ	Cc1c(N=Nc2ccccc2C(=O)O)c(O)n(CCNC(=O)c2cc(C(=O)O)c(C(=O)NCCn3c(O)c(N=Nc4ccccc4C(=O)O)c(C)c(C#N)c3=O)cc2C(=O)O)c(=O)c1C#N [Compound 323]
⊚	⊚⊚	⊚	◯	CCc1c(N=Nc2cc(C(=O)O)ccc2C(=O)O)c(O)n(CCn2c(=O)c3cc4c(=O)n(CCn5c(O)c(N=Nc6cc(C(=O)O)ccc6C(=O)O)c(CC)c(C#N)c5=O)c(=O)c4cc3c2=O)c(=O)c1C#N [Compound 335]
⊚	⊚⊚	⊚	◯	CC(C)(C)c1c(N=Nc2cc(C(=O)O)ccc2C(=O)O)c(O)n(CCn2c(=O)c3cc4c(=O)n(CCn5c(O)c(N=Nc6cc(C(=O)O)ccc6C(=O)O)c(C(C)(C)C)c(C#N)c5=O)c(=O)c4cc3c2=O)c(=O)c1C#N [Compound 336]
⊚	⊚	⊚	◯	Cc1c(N=Nc2cc(C(=O)O)ccc2C(=O)O)c(O)n(CCn2c(=O)c3cc4c(=O)n(CCn5c(O)c(N=Nc6cc(C(=O)O)ccc6C(=O)O)c(C)c(C#N)c5=O)c(=O)c4cc3c2=O)c(=O)c1C#N [Compound 342]
